Experimental data as given in patent publication US6689767B2, “Triterpenes having antibacterial activity” (Regents of the University of Minnesota, priority 2000, dated 2004).

What was measured:
Enterococcus faecalis = test: Kirby-Bauer disk diffusion of lupeol derivatives, Enterococcus faecalis; format: cell-based; conditions: for Active against: Table 1 summary, E. faecalis
Procedure: (§1) Derivatives of lupeol were tested for inhibition of bacterial growth using the Kirby-Bauer disk diffusion method and by growth in liquid culture. For the disk diffusion method, compounds were dissolved in DMSO and 100 μl was added to the 10 mm filter paper disk. The amount of compound applied to the disk varied. The amount applied for each compound was as follows: lupeol (50 μg), lupeol-3-maleate (15 μg), lupeol-3-thiodiglycolate (15 μg), lupeol-3-dimethyl succinate (60 μg), lupeol-3-phosphate (30 μg), lupenone (50 μg), lupenon-3-oxime (50 μg), lupeol-3-amine (50 μg), lupenon-1,2-ene-2-ol (50 μg). In liquid culture, the compounds were dissolved in DMSO at 1 mg/ml and then 100 μl was added to 7 ml of sterile broth, along with a 1/200 dilution of freshly grown bacterial liquid culture.

Enterococcus faecilis = test: Growth in liquid culture, optical density, E. faecalis; format: cell-based, Enterococcus faecalis; conditions: 600 nm, 24 hours growth, test compound at 14 μg per ml; None = 0.85
Procedure: as §1

bacteria = test: Summary statements over the antibacterial assays above; format: cell-based; conditions: for overall activity in Example 35: S. aureus, S. epidermidis, E. faecalis, disk diffusion and liquid growth; for active against at least one strain of bacteria in the assays above: summary list
Staphylococcus epidermis = test: Growth in liquid culture, optical density, S. epidermidis; format: cell-based, Staphylococcus epidermidis; conditions: 600 nm, 24 hours growth, test compound at 14 μg per ml; None = 0.07
Procedure: as §1

[1] = system: Staphylococcus epidemidis; test: Kirby-Bauer disk diffusion of lupeol derivatives, Staphylococcus epidermidis; format: cell-based; conditions: for Active against: Table 1 summary, S. epidermidis; for activity against S. epidermidis: Example 35, disk diffusion and liquid growth
Procedure: as §1

Staphylococcus aureus [2] = test: Kirby-Bauer disk diffusion growth inhibition, Staphylococcus aureus; format: cell-based; conditions: for Active against: Table 1 summary, S. aureus
Procedure: (§2) The compounds disclosed herein were tested for growth inhibition against four strains of bacteria: Escherichia coli, Staphylococcus aureus, methicillin-resistant Staphylococcus aureus, and Bacillus subtilis. […] They represent […]. E. coli is a gram-negative, non-spore forming, rod-shaped, opportunistic pathogen that resides in the human digestive tract. S. aureus is a gram positive coccus, is usually found morphologically as a […], and is an opportunistic human pathogen, often residing on or in the skin. B. subtilis is a gram positive spore-forming rod. Its native environment is the soil. The chemicals were tested for growth-inhibition of the bacteria by the Kirby-Bauer method. See, e.g., Microbiology, third edition; Lansing M. Prescott, John P. Harley, and Donald A. Klein; Wm. C. Brown Publishers.
(§3) Mueller-Hinton agar (Difco Lab, Michigan) was prepared according to the manufacturer's directions, and 20 ml was dispensed in each sterile petri dish. Sterile nutrient broth (Difco Lab, Michigan) was also prepared according to the manufacturer's directions.
(§4) Bacteria were grown in liquid nutrient broth for 18 hours at 37° C. until they were turbid.
(§5) An aliquot of 0.5 ml of cultured bacteria was aseptically transferred to the surface of a Mueller-Hinton agar plat, and spread using a cotton-tipped swab. Plates were then allowed to dry for 5 minutes. Then a 10 mm diameter filter paper disk impregnated with the test chemical was placed with sterile forceps on the plate. The disks were impregnated with 100 μl of a solution of the test compound in DMSO or in water, at the indicated concentrations in Table 1.
(§6) The zones of inhibition were measured after 18 hours growth at 37° C. Tests were done in triplicate.
(§7) Additional compounds were tested for activity against E. coli, laboratory strain S. aureus (not methicillin resistant), and B. subtilis. The compounds were tested by the disk diffusion method, as in Example 1, with application of a 10 mg/mil solution of the test compound in DMSO.
as §1

Staphylococcus aureus [3] = test: Growth in liquid culture, optical density, S. aureus; format: cell-based; conditions: 600 nm, 24 hours growth, test compound at 14 μg per ml; None = 0.08
Procedure: as §1

Escherichia coli = test: Kirby-Bauer disk diffusion growth inhibition, Escherichia coli; format: cell-based; conditions: Escherichia coli; 125 ng/ml in water, 100 μl on 10 mm disk, 18 hours 37° C.; read-out: Zone of inhibition Escherichia coli
Procedure: as §2, §3, §4, §5, §6, §7

Bacillus subtilis = test: Kirby-Bauer disk diffusion growth inhibition, Bacillus subtilis; format: cell-based; conditions: Bacillus subtilis; 125 ng/ml in water, 100 μl on 10 mm disk, 18 hours 37° C.; read-out: Zone of inhibition Bacillus subtilis
Procedure: as §2, §3, §4, §5, §6, §7

[4] = 50 μg applied to 10 mm disk in DMSO
[5] = Example 35, 50 μg applied to 10 mm disk in DMSO
[6] = 60 μg applied to 10 mm disk in DMSO
[7] = 15 μg applied to 10 mm disk in DMSO
[8] = Example 35, 15 μg applied to 10 mm disk in DMSO
[9] = 30 μg applied to 10 mm disk in DMSO

Structure (SMILES) | Zone of inhibition (mm) against E. faecalis (Enterococcus faecalis; [4]) | Active against (Enterococcus faecalis) | Optical Density of E. faecalis (Enterococcus faecilis) | active against at least one strain of bacteria in the assays above (bacteria) | Optical Density of S. epiderm (Staphylococcus epidermis) | Zone of inhibition (mm) against S. epiderm. [1, 4] | Active against [1] | Zone of inhibition (mm) against S. aureus (Staphylococcus aureus [2]; [5]) | Active against (Staphylococcus aureus [2]) | Optical Density of S. aureus (Staphylococcus aureus [3]) | activity against S. epidermidis [1] | further results
CC(=O)OC1CC[C@@]2(C)C(CC[C@]3(C)C2CCC2C4C5OC(=O)C4(CCC5(C)C)CC[C@@]23C)C1(C)C (stereo partly drawn) [Allobetulin lactone-3-acetate, 3-O-acetyl allobetulin-lactone] |  |  |  |  |  |  |  |  |  |  |  | melting point: 312.5 to 315.4 °C (dec.)
C=C(C)[C@@H]1CC[C@]2(C)CC[C@]3(C)[C@H](CC[C@@H]4[C@@]5(C)C=C(O)C(=O)C(C)(C)[C@@H]5CC[C@]43C)[C@@H]12 [Lupenon-1,2-ene-2-ol] | 0.6 mm | E. faecalis | 0.01 | active against at least one strain of bacteria | 0.006 | 2.65 mm | S. epidermidis, | 0.85 mm | S. aureus, | 0.04 |  | overall activity in Example 35 (bacteria): most active compound against almost all the bacteria
C=C(C)[C@@H]1CC[C@]2(C)CC[C@]3(C)[C@H](CC[C@@H]4[C@@]5(C)CCC(=O)C(C)(C)[C@@H]5CC[C@]43C)[C@@H]12 [Lupenone] | 0.5 mm | E. faecalis | 0.04 | active against at least one strain of bacteria | 0.03 | 1 mm |  | 1.25 mm | S. aureus, | 0.04 |  | overall activity in Example 35 (bacteria): excellent activity
C=C(C)C1CCC2(C)CCC3(C)C(CCC4C5(C)CCC(OC(=O)CC(C)(C)C(=O)O)C(C)(C)C5CCC43C)C12 (stereo not drawn) [Lupeol-3-(3′,3′-dimethyl)succinate] |  |  | 0.07 | active against at least one strain of bacteria | 0.06 |  |  |  | S. aureus | 0.06 |  | Zone of inhibition (mm) against E. faecalis (Enterococcus faecalis; [6]): 0 mm; Zone of inhibition (mm) against S. epiderm. [1, 6]: 0 mm; Zone of inhibition (mm) against S. aureus (Staphylococcus aureus [2]; Example 35, 60 μg applied to 10 mm disk in DMSO): 0.5 mm
C=C(C)[C@@H]1CC[C@]2(C)CC[C@]3(C)[C@H](CC[C@@H]4[C@@]5(C)CCC(N)C(C)(C)[C@@H]5CC[C@]43C)[C@@H]12 (stereo partly drawn) [Lupeol-3-amine] | 0.5 mm | E. faecalis | 0.04 | active against at least one strain of bacteria | 0.06 | 0 mm |  | 0.3 mm | S. aureus, | 0.06 |  | 
C=C(C)C1CCC2(C)CCC3(C)C(CCC4C5(C)CCC(OC(=O)C=CC(=O)O)C(C)(C)C5CCC43C)C12 (stereo not drawn) [Lupeol-3-maleate] |  | E. faecalis | 0.03 | active against at least one strain of bacteria | 0.04 |  | S. epidermidis, |  | S. aureus, | 0.06 | active | Zone of inhibition (mm) against E. faecalis (Enterococcus faecalis; [7]): 1.15 mm; Zone of inhibition (mm) against S. epiderm. [1, 7]: 0.5 mm; Zone of inhibition (mm) against S. aureus (Staphylococcus aureus [2]; [8]): 0.4 mm
C=C(C)[C@@H]1CC[C@]2(C)CC[C@]3(C)[C@H](CC[C@@H]4[C@@]5(C)CC[C@H](OP(=O)(O)O)C(C)(C)[C@@H]5CC[C@]43C)[C@@H]12 [Lupeol-3-phosphate] |  | E. faecalis | 0.04 | active against at least one strain of bacteria | 0.06 |  |  |  | S. aureus, | 0.06 |  | Zone of inhibition (mm) against E. faecalis (Enterococcus faecalis; [9]): 0.5 mm; Zone of inhibition (mm) against S. epiderm. [1, 9]: 0 mm; Zone of inhibition (mm) against S. aureus (Staphylococcus aureus [2]; Example 35, 30 μg applied to 10 mm disk in DMSO): 0.5 mm
C=C(C)[C@@H]1CC[C@]2(C)CC[C@]3(C)[C@H](CC[C@@H]4[C@@]5(C)CC[C@H](OC(=O)CSCC(=O)O)C(C)(C)[C@@H]5CC[C@]43C)[C@@H]12 [Lupeol-3-thiodiglycolate] |  | E. faecalis | 0.04 | active against at least one strain of bacteria | 0.035 |  | S. epidermidis, |  | S. aureus, | 0.06 | active | Zone of inhibition (mm) against E. faecalis (Enterococcus faecalis; [7]): 0.75 mm; Zone of inhibition (mm) against S. epiderm. [1, 7]: 0.5 mm; Zone of inhibition (mm) against S. aureus (Staphylococcus aureus [2]; [8]): 0.3 mm
C=C(C)[C@@H]1CC[C@]2(C)CC[C@@]3(C)C(CCC4[C@@]5(C)CC[C@H](O)C(C)(C)C5CC[C@]43C)C12 (stereo partly drawn) [Lupeol] |  | Enterococcus faecalis | 0.03 | active against at least one strain of bacteria | 0.04 |  | S. epidermidis |  | S. aureus, | 0.06 | active | zone of inhibition at 50 µg/disc (Enterococcus faecalis; Enterococcus faecalis, 50 μg applied to 10 mm disk in DMSO, read-out: Zone of inhibition (mm) against E. faecalis): 1.4 mm; zone of inhibition at 50 µg/disc ([1]; Staphylococcus, 50 μg applied to 10 mm disk in DMSO, read-out: Zone of inhibition (mm) against S. epiderm.): 0 mm; zone of inhibition at 0.125 µg/mL (Staphylococcus aureus [2]; Staphylococcus aureus, 125 ng/ml in water, 100 μl on 10 mm disk, 18 hours 37° C., read-out: Zone of inhibition Staphylococcus aureus): 0 mm; zone of inhibition at 50 µg/disc (Staphylococcus aureus [2]; Staphylococcus aureus, Example 35, 50 μg applied to 10 mm disk in DMSO, read-out: Zone of inhibition (mm) against S. aureus): 1 mm; zone of inhibition at 0.125 µg/mL (Escherichia coli): 0 mm; zone of inhibition at 0.125 µg/mL (Bacillus subtilis): 0 mm
